Drawing on paper PMC12432858, “Longitudinal imaging of therapeutic enzyme expression after gene therapy for Fabry disease using positron emission tomography and the radiotracer [^18F]AGAL” (Molecular Therapy, 2024), this text covers Kd for 1 molecule.

This assay has as its target T1, human α-galactosidase A (GLA; α-Gal A) (Homo sapiens, UniProt P06280).
T1 construct: heart tissue cryosections; no tag stated
T1 sequence (P06280 32-429): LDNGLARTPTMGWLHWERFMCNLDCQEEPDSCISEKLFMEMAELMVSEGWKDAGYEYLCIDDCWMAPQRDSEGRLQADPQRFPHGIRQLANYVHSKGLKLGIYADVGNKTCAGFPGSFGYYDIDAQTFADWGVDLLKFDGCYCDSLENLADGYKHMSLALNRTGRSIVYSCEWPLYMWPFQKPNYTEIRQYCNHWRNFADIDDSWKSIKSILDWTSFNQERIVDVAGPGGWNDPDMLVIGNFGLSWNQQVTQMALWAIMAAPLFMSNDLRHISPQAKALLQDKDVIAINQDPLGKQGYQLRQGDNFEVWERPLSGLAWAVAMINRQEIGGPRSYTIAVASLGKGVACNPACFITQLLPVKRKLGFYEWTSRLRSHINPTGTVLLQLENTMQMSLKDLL
Put plainly: saturation autoradiography on heart sections, one-site specific binding fit. The note with it: pH 5.0 McIlvaine buffer, 23 °C, 60 min; nonspecific binding defined with [19F]AGAL; active site; covalent (proposed); labelled compound; GLA in tissue sections of AAVGLA-treated Gla knockout mice.

In general, Kd refers to the equilibrium constant for the complex coming apart. Lower therefore signals tighter binding. Regarding `O=C(CCCCCCCn1cc(CCCF)nn1)N1C2C(O)C(O)C(O)C(CO)C21` (stereo not shown) [[^18F]AGAL], the Kd is ~20 nM.
